Activity calls are given as the source filed them. The rule behind the calls is not given here.
Test system: MRP1 cells, doxorubicin viability shift, 10 uM compound
Assay: viability protection against doxorubicin, MRP-1 line – cell-based, doxorubicin EC50 shift, dose response (AID 844)
Conditions: for EC50: measured here: doxorubicin EC50 with compound

With `Cc1ccc(C(c2nnnn2CS(=O)(=O)c2ccc(C)cc2)N2CCN(c3ncccn3)CC2)cc1` (stereo not drawn) the fold increase in Dox EC50 was 0.48 (inactive) and the EC50 was 2.58 µM.
In the case of `CCN(CC)S(=O)(=O)c1cc(NC(=O)C(=O)c2c(-c3ccccc3)cc3ccccn23)ccc1C`, the fold increase in Dox EC50 is reported as 1.28 (inactive) and the EC50 is reported as 6.91 µM.
With `CCc1c(C)sc(NC(=O)c2cc(CC(C)C)on2)c1C#N` the fold increase in Dox EC50 was 0.64 (inactive) and the EC50 was 3.45 µM.
With `CCOC(=O)/C(=N\Nc1ccccc1Cl)N1CCN(Cc2ccccc2)CC1` the fold increase in Dox EC50 was 0.63 (inactive) and the EC50 was 3.43 µM.
`Cc1ccc(C(=O)CCC(=O)Nc2ccc(Cl)c(S(=O)(=O)Nc3cccc(Cl)c3)c2)cc1` was tested, and the fold increase in Dox EC50 was 1.15 (inactive) and the EC50 was 6.21 µM.
With `O=C(/C=C/NNC(=O)c1ccccc1)c1ccc(Br)cc1` the fold increase in Dox EC50 was 0.53 (inactive) and the EC50 was 2.86 µM.
In the case of `COc1ccccc1C1CC(c2ccc(Cl)cc2Cl)Nc2nc(N)nn21` (stereo not drawn), the fold increase in Dox EC50 is reported as 0.95 (inactive) and the EC50 is reported as 5.11 µM.
`CN(Cc1ccccc1)c1ncnc2c1cnn2-c1ccccc1` was tested, and the fold increase in Dox EC50 was 0.54 (inactive) and the EC50 was 2.94 µM.
In the case of `CCOC(=O)c1sc(-c2ccccc2)cc1NC(=O)Nc1ccccc1`, the fold increase in Dox EC50 is reported as 0.4 (inactive) and the EC50 is reported as 2.16 µM.
`COc1ccccc1C1C(C(=O)c2sc(C)nc2C)=C(O)C(=O)N1CCN1CCOCC1` (stereo not drawn) was tested, and the fold increase in Dox EC50 was 0.71 (inactive) and the EC50 was 3.81 µM.
With `Cc1ccc(C(=O)NNC(=O)c2ccc(SCC3CCCO3)c([N+](=O)[O-])c2)cc1` (stereo not drawn) the fold increase in Dox EC50 was 0.56 (inactive) and the EC50 was 3.01 µM.
For `Cc1ccc(S(=O)(=O)N2CCC(C(=O)N[C@@H](C)C(=O)NC3CCCCC3)CC2)cc1`, the fold increase in Dox EC50 was 0.88 (inactive) and the EC50 was 4.73 µM.
With `Cc1nc(NC(=S)NC(=O)c2cccs2)sc1C(=O)N(C)C` the fold increase in Dox EC50 was 1.04 (inactive) and the EC50 was 5.59 µM.
`COc1cccc(-c2csc(NC(=O)C3CC3)n2)c1` was tested, and the fold increase in Dox EC50 was 0.84 (inactive) and the EC50 was 4.55 µM.
In the case of `CC1CCC/C(=C(\C#N)c2nc(-c3cc4ccccc4oc3=O)cs2)C1` (stereo not drawn), the fold increase in Dox EC50 is reported as 0.55 (inactive) and the EC50 is reported as 2.96 µM.
With `N#Cc1c(-c2ccccc2)nc(SCC(=O)Nc2ccccc2F)[nH]c1=O` the fold increase in Dox EC50 was 1.79 and the EC50 was 9.66 µM.
In the case of `O=C(CSc1ncn[nH]1)Nc1ccc(Br)cc1F`, the fold increase in Dox EC50 is reported as 0.98 (inactive) and the EC50 is reported as 5.28 µM.
In the case of `O=C(CC(Nc1ccc(F)cc1)C(=O)OCC(=O)c1cccs1)c1ccccc1` (stereo not drawn), the fold increase in Dox EC50 is reported as 0.69 (inactive) and the EC50 is reported as 3.73 µM.
For `CC(=O)/C(C#N)=C1\NC(=O)C(Cc2ccc(C)c(C)c2)S1` (stereo not drawn), the fold increase in Dox EC50 was 1.19 (inactive) and the EC50 was 6.44 µM.
For `Cc1cc(C)c(N=Cc2c(O)n(-c3nccs3)c(=O)c3ccccc23)c(C)c1`, the fold increase in Dox EC50 was 0.29 (inactive) and the EC50 was 1.54 µM.
In the case of `Cc1cc(C(=O)OCC(=O)Nc2ccc(F)c(F)c2)c(C)o1`, the fold increase in Dox EC50 is reported as 1.76 and the EC50 is reported as 9.53 µM.
With `CC(C)(C)c1cc(Br)ccc1OCC(=O)Nc1ncn[nH]1` the fold increase in Dox EC50 was 0.89 (inactive) and the EC50 was 4.78 µM.
With `Cc1c(C)n(C)c2ccc(C(=O)NCc3cccs3)cc12` the fold increase in Dox EC50 was 1.06 (inactive) and the EC50 was 5.75 µM.
For `CCN(C(=O)c1cc2cc3ccc(C)cc3nc2o1)c1ccc(OC)cc1`, the fold increase in Dox EC50 was 0.64 (inactive) and the EC50 was 3.46 µM.
In the case of `COc1ccc(Cc2nnc(N/N=C/c3ccc(O)cc3O)[nH]c2=O)cc1OC`, the fold increase in Dox EC50 is reported as 0.15 (inactive) and the EC50 is reported as 0.836 µM.
In the case of `Cc1cc2nc(-c3cccc(NC(=O)c4ccc(Br)o4)c3C)oc2cc1C`, the fold increase in Dox EC50 is reported as 1.03 (inactive) and the EC50 is reported as 5.56 µM.
In the case of `O=C(/C=C/c1ccc([N+](=O)[O-])cc1)N1CCN(c2ccccc2F)CC1`, the fold increase in Dox EC50 is reported as 0.56 (inactive) and the EC50 is reported as 3.05 µM.
With `CCc1ccc(/C(C)=N/Nc2cc(Cl)nc(C)n2)cc1` the fold increase in Dox EC50 was 0.69 (inactive) and the EC50 was 3.75 µM.
In the case of `CCc1nnc(NC(=O)CCC(=O)N2CCN(Cc3ccc(Cl)cc3)CC2)s1`, the fold increase in Dox EC50 is reported as 0.76 (inactive) and the EC50 is reported as 4.09 µM.
For `COc1ccc(C2CC(c3ccc(Cl)cc3Cl)Nc3nc(N)nn32)cc1OC` (stereo not drawn), the fold increase in Dox EC50 was 1.05 (inactive) and the EC50 was 5.68 µM.
In the case of `O=C1NC(=Nc2ccc(Cl)cc2)SC1Cc1cccc(Cl)c1Cl` (stereo not drawn), the fold increase in Dox EC50 is reported as 1.19 (inactive) and the EC50 is reported as 6.41 µM.
For `CN(C)c1ccc(NC(=O)CN2C(=O)CN=C(c3ccccc3)c3cc(Cl)ccc32)cc1`, the fold increase in Dox EC50 was 1.29 (inactive) and the EC50 was 6.99 µM.
`CC(C)CC(=O)n1sc(NC(=O)c2ccccc2)nc1=O` was tested, and the fold increase in Dox EC50 was 0.92 (inactive) and the EC50 was 4.95 µM.
`Cn1c(=O)c2c(nc(CN3CCOCC3)n2CCc2ccccc2)n(C)c1=O` was tested, and the fold increase in Dox EC50 was 0.31 (inactive) and the EC50 was 1.68 µM.
In the case of `Cc1ccc2nc(/N=C(\N)NC(=O)N3c4ccccc4Sc4ccccc43)nc(C)c2c1`, the fold increase in Dox EC50 is reported as 1.94 and the EC50 is reported as 10.5 µM.
For `C/C(=N\NC(=O)c1cccc(S(=O)(=O)Nc2cccc(Cl)c2)c1)c1cccs1`, the fold increase in Dox EC50 was 0.65 (inactive) and the EC50 was 3.49 µM.
With `COc1cccc(/C=N/NC(=O)C(=O)N2CCCC2)c1O` the fold increase in Dox EC50 was 0.67 (inactive) and the EC50 was 3.6 µM.
With `O=C(NC(=S)Nc1ccccc1N1CCCCC1)c1ccc(-c2cccc([N+](=O)[O-])c2)o1` the fold increase in Dox EC50 was 1.3 (inactive) and the EC50 was 7.02 µM.
For `N/C(Cc1cccs1)=N\OC(=O)COc1ccc(Br)cc1`, the fold increase in Dox EC50 was 1.01 (inactive) and the EC50 was 5.44 µM.
With `O=C(Nc1nnc(COc2ccc(Cl)cc2)s1)C1CCCO1` (stereo not drawn) the fold increase in Dox EC50 was 1.2 (inactive) and the EC50 was 6.46 µM.
In the case of `C=CCN(C(=O)Nc1ccc(Cl)cc1)C1CC(=O)N(c2ccc(OC)cc2)C1=O` (stereo not drawn), the fold increase in Dox EC50 is reported as 0.9 (inactive) and the EC50 is reported as 4.85 µM.
`Cc1cccc(-n2ncc3c(N4CC(C)CC(C)C4)ncnc32)c1` (stereo not drawn) was tested, and the fold increase in Dox EC50 was 0.6 (inactive) and the EC50 was 3.25 µM.
With `CCOC(=O)C1=C(C)N=c2s/c(=C\c3ccc(OC(C)=O)cc3)c(=O)n2C1/C=C/c1ccccc1` (stereo not drawn) the fold increase in Dox EC50 was 0.34 (inactive) and the EC50 was 1.85 µM.
With `Cc1c(OCC(=O)OC(C)(C)C)ccc2c3c(c(=O)oc12)CCC3` the fold increase in Dox EC50 was 1.04 (inactive) and the EC50 was 5.59 µM.
With `Oc1c(C=C2N=c3ccccc3=N2)sc(=S)n1-c1ccc(F)cc1` the fold increase in Dox EC50 was 0.63 (inactive) and the EC50 was 3.39 µM.
For `NC(=O)C1(N2CCCCC2)CCN(C(=O)c2cccn3c(=O)c4cc(Cl)ccc4nc23)CC1`, the fold increase in Dox EC50 was 0.7 (inactive) and the EC50 was 3.79 µM.
With `COc1cc(C)ccc1N(CCCN1C(=O)c2cccc3cccc(c23)C1=O)C(=O)c1cccs1` the fold increase in Dox EC50 was 1.13 (inactive) and the EC50 was 6.12 µM.
With `CCC1SC2=NC(C)=C(C(=O)OCCOC)C(c3ccc(C(=O)OC)cc3)N2C1=O` (stereo not drawn) the fold increase in Dox EC50 was 0.92 (inactive) and the EC50 was 4.98 µM.
`CCCOc1ccc(C(=O)Nc2ccc(N3CCN(C(C)=O)CC3)cc2)cc1` was tested, and the fold increase in Dox EC50 was 1.06 (inactive) and the EC50 was 5.75 µM.
In the case of `N=C(N)SCc1nc2ccccn2c1Br`, the fold increase in Dox EC50 is reported as 0.28 (inactive) and the EC50 is reported as 1.49 µM.
In the case of `COc1ncnc2c1oc1nc(CC(C)C)c3c(c12)CCCC3`, the fold increase in Dox EC50 is reported as 0.66 (inactive) and the EC50 is reported as 3.57 µM.
In the case of `CCN(CC(=O)NC(C)C)C(=O)c1ccc(Cl)cc1`, the fold increase in Dox EC50 is reported as 0.45 (inactive) and the EC50 is reported as 2.41 µM.
With `Cc1csc(C(C#N)C(=O)c2cc3ccccc3o2)n1` (stereo not drawn) the fold increase in Dox EC50 was 1.19 (inactive) and the EC50 was 6.41 µM.
In the case of `OCCN=C1CCCc2c1[nH]c1ccc(Br)cc21`, the fold increase in Dox EC50 is reported as 0.84 (inactive) and the EC50 is reported as 4.56 µM.

From PubChem BioAssay AID844 (SRMLSC, 2007)
